Several values for one entry are separate records, joined by “and”; a condition that tells them apart may be missing. Equal entries are not always repeated. Toxic doses and inconclusive results are not listed. Rule as the data show it: active = T/C of 150% or more; inactive = T/C below 125%.
Tested on: L1210 leukemia ip in BDF1 mice, survival T/C
Test: NCI In Vivo Anticancer Drug Screen. Data for tumor model L1210 Leukemia (intraperitoneal) in B6D2F1 (BDF1) mice
Settings: endpoint: mean survival time, higher = longer survival
Procedure, shortened: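 In this screen, tumor-bearing mice given compound are compared to those given vehicle, and their survival values are reported as a treated-to-control quotient.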

[1] = dose: 100.0 mg/kg/injection, schedule: Q01DX001 (ip), vehicle: saline
[2] = dose: 200.0 mg/kg/injection, schedule: Q01DX001 (ip), vehicle: saline
[3] = dose: 100.0 mg/kg/injection, schedule: Q04DX003 (ip), vehicle: Klucel (hydroxypropylcellulose) (HPC)

Measured: T/C

COc1cc(C(=O)NCC2(C)OC3(OC(=O)C2O)C(=O)N/C(=C(\C=O)C(C)=O)OC3C(O)C2CN2C(C)=O)c2cccc(C)c2c1 (stereo unspecified)
inactive: dose: 0.05 mg/kg/injection, schedule: Q01DX015 (oral), vehicle: clinical formulation 107 % of control | dose: 0.1 mg/kg/injection, schedule: Q01DX001 (ip), vehicle: clinical formulation 104 % of control and 120 % of control | dose: 0.1 mg/kg/injection, schedule: Q01DX015 (oral), vehicle: clinical formulation 113 % of control | dose: 0.15 mg/kg/injection, schedule: Q03DX005 (ip), vehicle: clinical formulation 111 % of control | dose: 0.2 mg/kg/injection, schedule: Q01DX001 (ip), vehicle: clinical formulation 103 % of control | dose: 0.2 mg/kg/injection, schedule: Q07DX003 (ip), vehicle: clinical formulation 105 % of control | dose: 0.4 mg/kg/injection, schedule: Q01DX001 (ip), vehicle: clinical formulation 95 % of control and 115 % of control | dose: 0.8 mg/kg/injection, schedule: Q01DX001 (ip), vehicle: clinical formulation 107 % of control | dose: 3.5 micrograms/kg/injection, schedule: Q03DX005 (ip), vehicle: clinical formulation 114 % of control | dose: 6.0 micrograms/kg/injection, schedule: Q01DX015 (ip), vehicle: clinical formulation 112 % of control | dose: 6.0 micrograms/kg/injection, schedule: Q01DX045 (ip), vehicle: clinical formulation 124 % of control | dose: 7.0 micrograms/kg/injection, schedule: Q03DX005 (ip), vehicle: clinical formulation 122 % of control | dose: 12.5 micrograms/kg/injection, schedule: Q01DX006 (iv), vehicle: clinical formulation 109 % of control | dose: 12.5 micrograms/kg/injection, schedule: Q01DX015 (im), vehicle: clinical formulation 103 % of control | dose: 12.5 micrograms/kg/injection, schedule: Q01DX045 (ip), vehicle: clinical formulation 118 % of control | dose: 13.0 micrograms/kg/injection, schedule: Q01DX Z (ip), vehicle: saline 113 % of control | dose: 13.0 micrograms/kg/injection, schedule: Q07DX003 (ip), vehicle: clinical formulation 118 % of control | dose: 25.0 micrograms/kg/injection, schedule: Q01DX006 (iv), vehicle: clinical formulation 101 % of control | dose: 25.0 micrograms/kg/injection, schedule: Q01DX015 (im), vehicle: clinical formulation 109 % of control | dose: 25.0 micrograms/kg/injection, schedule: Q01DX Z (ip), vehicle: saline 113 % of control | dose: 25.0 micrograms/kg/injection, schedule: Q07DX003 (ip), vehicle: clinical formulation 124 % of control | dose: 50.0 micrograms/kg/injection, schedule: Q01DX006 (iv), vehicle: clinical formulation 115 % of control | dose: 50.0 micrograms/kg/injection, schedule: Q01DX015 (im), vehicle: clinical formulation 115 % of control | dose: 50.0 micrograms/kg/injection, schedule: Q01DX Z (ip), vehicle: saline 98 % of control and 107 % of control | dose: 100.0 micrograms/kg/injection, schedule: Q01DX006 (iv), vehicle: clinical formulation 123 % of control | dose: 100.0 micrograms/kg/injection, schedule: Q01DX015 (im), vehicle: clinical formulation 110 % of control | dose: 100.0 micrograms/kg/injection, schedule: Q01DX015 (ip), vehicle: clinical formulation 95 % of control | dose: 100.0 micrograms/kg/injection, schedule: Q01DX Z (ip), vehicle: saline 89 % of control

O=C(NCCBr)c1ccc(CCl)cc1
inactive: dose: 75.0 mg/kg/injection, schedule: Q04DX003 (ip), vehicle: Klucel (hydroxypropylcellulose) (HPC) 102 % of control | dose: 100.0 mg/kg/injection, schedule: Q01DX001 (ip), vehicle: Klucel (hydroxypropylcellulose) (HPC) 104 % of control | dose: 150.0 mg/kg/injection, schedule: Q04DX003 (ip), vehicle: Klucel (hydroxypropylcellulose) (HPC) 96 % of control | dose: 200.0 mg/kg/injection, schedule: Q01DX001 (ip), vehicle: Klucel (hydroxypropylcellulose) (HPC) 95 % of control | dose: 300.0 mg/kg/injection, schedule: Q04DX003 (ip), vehicle: Klucel (hydroxypropylcellulose) (HPC) 97 % of control | dose: 400.0 mg/kg/injection, schedule: Q01DX001 (ip), vehicle: Klucel (hydroxypropylcellulose) (HPC) 103 % of control

CS(=O)(=O)C(Cl)(Cl)S(C)(=O)=O
inactive: dose: 6.25 mg/kg/injection, schedule: Q01DX009 (ip), vehicle: saline with Tween-80 116 % of control | dose: 12.5 mg/kg/injection, schedule: Q01DX009 (ip), vehicle: saline with Tween-80 102 % of control | dose: 25.0 mg/kg/injection, schedule: Q01DX009 (ip), vehicle: saline with Tween-80 104 % of control

O=C(O)c1c(Cl)c(Cl)c(Cl)c(Cl)c1C(=O)O.O=C(O)c1c(Cl)c(Cl)c(Cl)c(Cl)c1C(=O)O.[Pt]
inactive: dose: 100.0 mg/kg/injection, schedule: Q04DX003 (ip), vehicle: saline sonified 105 % of control

CC(=O)n1c(O)c(N=NC(=O)c2ccccc2[N+](=O)[O-])c2ccccc21
inactive: dose: 100.0 mg/kg/injection, schedule: Q01DX009 (ip), vehicle: Klucel (hydroxypropylcellulose) (HPC) 86 % of control | dose: 200.0 mg/kg/injection, schedule: Q01DX009 (ip), vehicle: Klucel (hydroxypropylcellulose) (HPC) 93 % of control | dose: 400.0 mg/kg/injection, schedule: Q01DX009 (ip), vehicle: Klucel (hydroxypropylcellulose) (HPC) 89 % of control

Cc1ccc(C[As+](c2ccccc2)(c2ccccc2)c2ccccc2)cc1
inactive: dose: 10.0 mg/kg/injection, schedule: Q01DX001 (ip), vehicle: saline 97 % of control | dose: 20.0 mg/kg/injection, schedule: Q01DX001 (ip), vehicle: saline 96 % of control | dose: 40.0 mg/kg/injection, schedule: Q01DX001 (ip), vehicle: saline 96 % of control

N#Cc1ccccc1OCCCOc1ccccc1C#N
inactive: dose: 75.0 mg/kg/injection, schedule: Q01DX009 (ip), vehicle: Klucel (hydroxypropylcellulose) (HPC) 100 % of control | dose: 150.0 mg/kg/injection, schedule: Q01DX009 (ip), vehicle: Klucel (hydroxypropylcellulose) (HPC) 99 % of control | dose: 300.0 mg/kg/injection, schedule: Q01DX009 (ip), vehicle: Klucel (hydroxypropylcellulose) (HPC) 106 % of control

NNS(=O)(=O)CCCCCCCCCCC(=O)O
inactive: dose: 50.0 mg/kg/injection, schedule: Q01DX009 (ip), vehicle: saline with Tween-80 99 % of control | dose: 100.0 mg/kg/injection, schedule: Q01DX009 (ip), vehicle: saline with Tween-80 96 % of control | dose: 100.0 mg/kg/injection, schedule: Q04DX003 (ip), vehicle: saline with Tween-80 92 % of control | dose: 200.0 mg/kg/injection, schedule: Q01DX009 (ip), vehicle: saline with Tween-80 91 % of control | dose: 200.0 mg/kg/injection, schedule: Q04DX003 (ip), vehicle: saline with Tween-80 90 % of control

COC(=O)C1C(=O)CC2(C)CCCCC12 (stereo unspecified)
inactive: dose: 100.0 mg/kg/injection, schedule: Q04DX002 (ip), vehicle: Klucel (hydroxypropylcellulose) (HPC) 97 % of control | dose: 200.0 mg/kg/injection, schedule: Q04DX002 (ip), vehicle: Klucel (hydroxypropylcellulose) (HPC) 100 % of control | dose: 400.0 mg/kg/injection, schedule: Q04DX002 (ip), vehicle: Klucel (hydroxypropylcellulose) (HPC) 93 % of control

Nc1nc(N)c2cc(N(CCO)CCO)ccc2n1
inactive: dose: 50.0 mg/kg/injection, schedule: Q01DX001 (ip), vehicle: saline 101 % of control | [1] 95 % of control | [2] 95 % of control

O=C1c2cc(Br)cc(Br)c2NCCCC1(Br)Br
inactive: [3] 94 % of control | dose: 200.0 mg/kg/injection, schedule: Q04DX003 (ip), vehicle: Klucel (hydroxypropylcellulose) (HPC) 97 % of control | dose: 400.0 mg/kg/injection, schedule: Q04DX003 (ip), vehicle: Klucel (hydroxypropylcellulose) (HPC) 94 % of control

C=COC(=O)NC(Cc1ccccc1)C(=O)O (stereo unspecified)
inactive: [1] 97 % of control | [2] 89 % of control

COc1cc([C@@H]2c3cc4c(cc3[C@H](O)[C@H]3COC(=O)[C@H]23)OCO4)cc(OC)c1OC
inactive: dose: 0.14 mg/kg/injection, schedule: Q01DX Z (ip), vehicle: carboxymethylcellulose (CMC) 95 % of control | dose: 0.27 mg/kg/injection, schedule: Q01DX Z (ip), vehicle: carboxymethylcellulose (CMC) 101 % of control | dose: 0.54 mg/kg/injection, schedule: Q01DX Z (ip), vehicle: carboxymethylcellulose (CMC) 108 % of control | dose: 1.08 mg/kg/injection, schedule: Q01DX Z (ip), vehicle: carboxymethylcellulose (CMC) 105 % of control and 120 % of control | dose: 1.62 mg/kg/injection, schedule: Q01DX Z (ip), vehicle: carboxymethylcellulose (CMC) 110 % of control | dose: 2.16 mg/kg/injection, schedule: Q01DX Z (ip), vehicle: carboxymethylcellulose (CMC) 95 % of control | dose: 15.0 mg/kg/injection, schedule: Q01DX001 (ip), vehicle: carboxymethylcellulose (CMC) 117 % of control | dose: 30.0 mg/kg/injection, schedule: Q01DX001 (ip), vehicle: carboxymethylcellulose (CMC) 111 % of control | dose: 60.0 mg/kg/injection, schedule: Q01DX001 (ip), vehicle: carboxymethylcellulose (CMC) 88 % of control

O=C(O)c1ccccc1NC(=O)C(F)(F)F
inactive: dose: 25.0 mg/kg/injection, schedule: Q01DX009 (ip), vehicle: saline sonified 98 % of control | dose: 50.0 mg/kg/injection, schedule: Q01DX009 (ip), vehicle: saline sonified 96 % of control | dose: 100.0 mg/kg/injection, schedule: Q01DX009 (ip), vehicle: saline sonified 93 % of control | [3] 101 % of control
